Data as given in PubChem BioAssay AID330 (DTP/NCI, 2004).
Where “and” joins values, the source holds several entries; their conditions need not be identical. Identical values can stand only once. Inconclusive results and toxic doses are left out. Rule for the calls: active = survival T/C of 150% or more; inactive = T/C below 125% in these data.

Tested on: P388 leukemia ip, CD2F1 mice, survival T/C
Experiment: NCI In Vivo Anticancer Drug Screen. Data for tumor model P388 Leukemia (intraperitoneal) in CD2F1 (CDF1) mice
Conditions: endpoint: median survival time, higher = longer survival
In short: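 Mice carrying the transplanted tumor received test compound or vehicle. Survival was recorded in each group, and the value is the treated-group measurement divided by that of the vehicle-treated control group.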

[1] = dose: 50.0 mg/kg/injection, schedule: Q01DX005 (ip), vehicle: saline with Tween-80
[2] = dose: 100.0 mg/kg/injection, schedule: Q01DX005 (ip), vehicle: saline with Tween-80
[3] = dose: 200.0 mg/kg/injection, schedule: Q01DX005 (ip), vehicle: saline with Tween-80
[4] = dose: 50.0 mg/kg/injection, schedule: Q04DX003 (ip), vehicle: saline with Tween-80
[5] = dose: 100.0 mg/kg/injection, schedule: Q04DX003 (ip), vehicle: saline with Tween-80
[6] = dose: 100.0 mg/kg/injection, schedule: Q04DX003 (ip), vehicle: saline
[7] = dose: 200.0 mg/kg/injection, schedule: Q04DX003 (ip), vehicle: saline
[8] = dose: 0.78 mg/kg/injection, schedule: Q01DX009 (ip), vehicle: saline with Tween-80
[9] = dose: 1.56 mg/kg/injection, schedule: Q01DX009 (ip), vehicle: saline with Tween-80
[10] = dose: 3.13 mg/kg/injection, schedule: Q01DX009 (ip), vehicle: saline with Tween-80
[11] = dose: 60.0 mg/kg/injection, schedule: Q01DX005 (ip), vehicle: saline with Tween-80
[12] = dose: 50.0 mg/kg/injection, schedule: Q01DX009 (ip), vehicle: saline with Tween-80
[13] = dose: 100.0 mg/kg/injection, schedule: Q01DX009 (ip), vehicle: saline with Tween-80
[14] = dose: 50.0 mg/kg/injection, schedule: Q01DX005 (ip), vehicle: Klucel (hydroxypropylcellulose) (HPC)
[15] = dose: 100.0 mg/kg/injection, schedule: Q01DX005 (ip), vehicle: Klucel (hydroxypropylcellulose) (HPC)
[16] = dose: 200.0 mg/kg/injection, schedule: Q01DX005 (ip), vehicle: Klucel (hydroxypropylcellulose) (HPC)

Measured: T/C

O=c1oc2c(c(N(c3ccccc3)c3ccccc3)c1Cl)CCc1nc(-c3ccccc3)sc1-2
inactive: [1] 91 % of control | [2] 94 % of control | [3] 88 % of control

CCCCNC1=CC(=O)c2ccccc2C1=O
inactive: [4] 99 % of control | [5] 92 % of control | dose: 200.0 mg/kg/injection, schedule: Q04DX003 (ip), vehicle: saline with Tween-80 88 % of control

Cc1[nH]nc2c(NCc3ccco3)ncnc12
inactive: dose: 25.0 mg/kg/injection, schedule: Q04DX003 (ip), vehicle: saline 98 % of control | dose: 50.0 mg/kg/injection, schedule: Q04DX003 (ip), vehicle: saline 104 % of control | [6] 101 % of control | [7] 95 % of control

COC(=O)/C=C1\C2OC(C1C(=O)OC)C1OC(C)(C)OC21 (stereo not drawn)
inactive: [1] 99 % of control | [2] 103 % of control | [3] 96 % of control

COC(=O)C12Oc3ccc(-c4ccc5c(c4O)C(O)=C4C(=O)CC(C)C(O)C4(C(=O)OC)O5)c(O)c3C(O)=C1C(=O)CC(C)C2O (stereo not drawn)
inactive: dose: 0.39 mg/kg/injection, schedule: Q01DX009 (ip), vehicle: saline with Tween-80 100 % of control | [8] 104 % of control | [9] 106 % of control | dose: 2.5 mg/kg/injection, schedule: Q01DX009 (ip), vehicle: saline with Tween-80 96 % of control | [10] 112 % of control | dose: 5.0 mg/kg/injection, schedule: Q01DX009 (ip), vehicle: saline with Tween-80 100 % of control | dose: 6.25 mg/kg/injection, schedule: Q04DX003 (ip), vehicle: saline with Tween-80 104 % of control | dose: 8.33 mg/kg/injection, schedule: Q04DX003 (ip), vehicle: saline with Tween-80 104 % of control | dose: 10.0 mg/kg/injection, schedule: Q01DX009 (ip), vehicle: saline with Tween-80 105 % of control | dose: 12.5 mg/kg/injection, schedule: Q04DX003 (ip), vehicle: saline with Tween-80 109 % of control | dose: 18.7 mg/kg/injection, schedule: Q04DX003 (ip), vehicle: saline with Tween-80 113 % of control | dose: 25.0 mg/kg/injection, schedule: Q04DX003 (ip), vehicle: saline with Tween-80 118 % of control

Cc1cc(Cl)nc(Cl)c1C#N
inactive: dose: 18.75 mg/kg/injection, schedule: Q04DX003 (ip), vehicle: saline 98 % of control | dose: 37.5 mg/kg/injection, schedule: Q04DX003 (ip), vehicle: saline 103 % of control | dose: 75.0 mg/kg/injection, schedule: Q04DX003 (ip), vehicle: saline 103 % of control | dose: 150.0 mg/kg/injection, schedule: Q04DX003 (ip), vehicle: saline 99 % of control

CNC(=O)OCc1c(COC(=O)NC)c(-c2ccsc2)n2c1CCC2
inactive: dose: 15.0 mg/kg/injection, schedule: Q01DX005 (ip), vehicle: saline with Tween-80 118 % of control | [11] 119 % of control and 124 % of control

COc1ccc(NC2=NC(C)(CO)CS2)cc1 (stereo not drawn)
inactive: [12] 116 % of control | [13] 96 % of control | dose: 200.0 mg/kg/injection, schedule: Q01DX009 (ip), vehicle: saline with Tween-80 107 % of control

Cc1ccccc1NC(=S)NC1C(=O)Nc2ccccc21 (stereo not drawn)
inactive: [1] 101 % of control | [2] 107 % of control | [3] 98 % of control

O=S1(=O)C[CH-]C1.[C-]#[O+].[C-]#[O+].[C-]#[O+].[W].[c-]1[c-][c-][cH-][c-]1
inactive: [8] 98 % of control | [9] 93 % of control | [10] 94 % of control | dose: 6.25 mg/kg/injection, schedule: Q01DX009 (ip), vehicle: saline with Tween-80 93 % of control

N#CC(C#N)=Cc1ccc(N2CCOCC2)cc1
inactive: dose: 50.0 mg/kg/injection, schedule: Q01DX009 (ip), vehicle: saline 90 % of control | dose: 100.0 mg/kg/injection, schedule: Q01DX009 (ip), vehicle: saline 97 % of control | dose: 200.0 mg/kg/injection, schedule: Q01DX009 (ip), vehicle: saline 90 % of control

O=C(COC1CCCCC1)OC1CCCCC1
inactive: [4] 100 % of control | [5] 100 % of control

CS/C(=N/N=C/c1ccc2ccccc2n1)SS/C(=N/N=C\c1ccc2ccccc2n1)SC
inactive: [1] 88 % of control | [2] 91 % of control | [3] 104 % of control

CC(C(=O)O)S(=O)(=O)O (stereo not drawn)
inactive: dose: 20.0 mg/kg/injection, schedule: Q01DX009 (ip), vehicle: saline with Tween-80 100 % of control | dose: 40.0 mg/kg/injection, schedule: Q01DX009 (ip), vehicle: saline with Tween-80 96 % of control

CN1CCC/C1=C1/C(=O)Nc2ccc(Cl)cc21
inactive: [14] 108 % of control | [15] 107 % of control | [16] 102 % of control

CCN1C(=O)CC(NC2CC(OC3C[C@](O)(C(C)=O)Cc4c(O)c5c(c(O)c43)C(=O)c3c(OC)cccc3C5=O)OC(C)C2O)C1=O (stereo partly drawn)
inactive: dose: 6.25 mg/kg/injection, schedule: Q04DX003 (ip), vehicle: water 115 % of control | dose: 12.5 mg/kg/injection, schedule: Q04DX003 (ip), vehicle: water 103 % of control | dose: 25.0 mg/kg/injection, schedule: Q04DX003 (ip), vehicle: water 105 % of control | dose: 50.0 mg/kg/injection, schedule: Q04DX003 (ip), vehicle: water 105 % of control

CCCCCCCCC(=O)CCCC
inactive: [12] 109 % of control | [13] 122 % of control | [6] 100 % of control | [7] 113 % of control

CCCCCCCC/C=C/CCCCCCCC(=O)NCCCN (tested in a mixture with another compound)
inactive: dose: 25.0 mg/kg/injection, schedule: Q04DX002 (ip), vehicle: saline 104 % of control | dose: 50.0 mg/kg/injection, schedule: Q04DX002 (ip), vehicle: saline 103 % of control

COC(=O)C(=O)C(C#N)c1ccc(C)cc1 (stereo not drawn)
inactive: [11] 104 % of control | dose: 120.0 mg/kg/injection, schedule: Q01DX005 (ip), vehicle: saline with Tween-80 104 % of control | dose: 240.0 mg/kg/injection, schedule: Q01DX005 (ip), vehicle: saline with Tween-80 103 % of control

c1ccc(C2=NN(c3ccccc3)C3(c4ccccc4)CCCN23)cc1 (stereo not drawn)
inactive: dose: 100.0 mg/kg/injection, schedule: Q01DX001 (ip), vehicle: saline with Tween-80 108 % of control | dose: 200.0 mg/kg/injection, schedule: Q01DX001 (ip), vehicle: saline with Tween-80 97 % of control | dose: 400.0 mg/kg/injection, schedule: Q01DX001 (ip), vehicle: saline with Tween-80 95 % of control

CC(C)C(NC(=O)OCc1ccccc1)C(=O)N(C(=O)NC1CCCCC1)C1CCCCC1 (stereo not drawn)
inactive: [14] 100 % of control | [15] 95 % of control | [16] 98 % of control
